Laboratory results published in US20250381171A1, “COMBINATION OF DIHYDROBERBERINE AND ERGOTHIONEINE TO REDUCE OR INHIBIT ADVANCED GLYCATION END-PRODUCTS” (NANJING NUTRABUILDING BIO-TECH CO., LTD., priority 2023, published 2025).

How the values were obtained:
SOD = SOD activity in skin of D-galactose-injected mice; assay type: in vivo, Kunming mice; conditions: 14th week, 100 mg/kg each s.c. once daily for 6 weeks, vs non-supplementation group
Protocol: (§1) Six-week-old, male, Kunming mice (n=40), weighed about 30±2 g, were obtained from Cavens Lab Animal (Changzhou, China) and housed in a controlled room (25±2° C., 60% relative humidity, 12 h light/dark cycle) with free access to water and standard laboratory diet. After an acclimation period (1 week), mice were randomly divided into four groups. Each mouse's back skin was chosen as the experimental observation area, a razor was used to shave off the back hair. 5% sodium sulfide solution was applied to the back to remove the hair. All mice were then injected subcutaneously with same volume of D-galactose (1000 mg/kg), once a day for 8 weeks. During the entire experiment, the daily food intake and weight of each mouse were recorded every day, and the D-galactose injection dose were adjusted according to the weight change. The four groups were non-supplement group (Con, Group 1); DHB supplement group (100 mg/kg, Group 2); EGT supplement group (100 mg/kg, Group 3); and EGT+DHB supplement group (100 mg/kg EGT+100 mg/kg DHB, Group 4). Mice in groups 2-4 were injected subcutaneously (s.c.) into their back skins with the corresponding concentration before each major meal once daily for 6 weeks. All mice were sacrificed after 6 weeks at the end of the experiment. […] The levels of H2O2, SOD, CAT, GSH, and GSH-Px in the skin were detected with relative kits as reference. […]

CAT = CAT activity in skin of D-galactose-injected mice; assay type: in vivo, Kunming mice; conditions: 14th week, 100 mg/kg each s.c. once daily for 6 weeks, vs non-supplementation group
Protocol: as §1

GSH = GSH activity in skin of D-galactose-injected mice; assay type: in vivo, Kunming mice; conditions: 14th week, 100 mg/kg each s.c. once daily for 6 weeks, vs non-supplementation group
Protocol: as §1

GSH-Px = GSH-Px activity in skin of D-galactose-injected mice; assay type: in vivo, Kunming mice; conditions: 14th week, 100 mg/kg each s.c. once daily for 6 weeks, vs non-supplementation group
Protocol: as §1

[1] = test system: advanced glycation end products (AGEs) formed from bovine serum albumin (BSA) and D-ribose; test: Measurement of glycation: fluorescence of AGEs from BSA incubated with D-ribose; assay type: biochemical; conditions: BSA 1 mg/ml + D-ribose 10 mM, 37° C., 10 days; EGT 3 mM alone or DHB 3 mM + EGT 3 mM
Protocol: The formulation of glycation products was observed placing together a bovine serum albumin (BSA) and D-ribose in the absence of DHB and EGT, EGT only and DHB and EGT combination.
Specifically, a solution of BSA at a concentration of 1 mg/ml dissolved in phosphate-buffered saline (PBS) was incubated at 37° C. for 10 days with D-ribose at a concentration of 10 mM, in the presence of EGT only (3 mM, Group 1) and the DHB (3 mM) and EGT (3 mM) combination (Group 2).
So, the glycation was evaluated by measuring the fluorescence of the AGEs at λem=450 nm emitted by each sample after excitation at λex=380 nm. The inhibition of glycation was visualized by the decrease in fluorescence compared with the samples treated with the sugar alone.

Compound	SOD activity (in words) (SOD)	CAT activity (in words) (CAT)	GSH activity (in words) (GSH)	GSH-Px activity (in words) (GSH-Px)	anti-glycation activity (in words) [1]
COc1ccc2c(c1OC)CN1CCc3cc4c(cc3C1=C2)OCO4 [DHB, Dihydroberberine]	significantly improved	significantly improved	significantly improved	significantly improved	
C[N+](C)(C)[C@@H](Cc1c[nH]c(=S)[nH]1)C(=O)[O-] [EGT, ergothioneine]	significantly improved	significantly improved	significantly improved	significantly improved	fabulous anti-glycation activity
